Values quoted from earlier work, collected in patent US6316027A, “Fast-dissolving dosage forms for dopamine agonists” (priority 1995, dated 2001).

Assays:
[1] = not given; remark: listed apart in the source
[2] = not given; remark: listed apart in the source
[3] = acidic environment
[4] = sub-lingual tablets, prolonged use

| fraction entering the brain (in vivo) | absorption from the small intestine (oral) | involuntary movements on prolonged use ([1]; prolonged use) | presystemic metabolism (first pass effect) ([2]; oral tablets, small intestine and/or liver) | blood urea nitrogen ([2]; oral, long-term studies, stopped after 7-10 days) | stomatitis [2, 4] | Compound | incidence of malignant melanoma ([1]; patients undergoing treatment with levodopa) | nasal side effects ([2]; intranasal) | buccal mucosal ulceration, share of patients [2, 4] | dopamine agonist side effects ([2]; subcutaneous) | chemical stability [3] |
| --- | --- | --- | --- | --- | --- | --- | --- | --- | --- | --- | --- |
| less than 1% | well absorbed from the small intestine | involuntary choreiform movements | – | – | – | N[C@@H](Cc1ccc(O)c(O)c1)C(=O)O [levodopa] | increased incidence of malignant melanoma | – | – | – | – |
| – | – | – | extensive presystemic metabolism | unexplained rises in blood urea nitrogen | severe stomatitis | CN1CCc2cccc3c2[C@H]1Cc1ccc(O)c(O)c1-3 [apomorphine, 5,6,6a,7-tetrahydro-6-methyl-4H-dibenzo quinoline-10; 11-diol] | – | transient nasal blockage, burning sensation and swollen nose and lips | half the patients | nausea and vomiting | optimal chemical stability in an acidic environment |
